Experimental data published in ChEMBL document CHEMBL4483862, “Open-source discovery of chemical leads for next-generation chemoprotective antimalarials” (2018).

Tested on: Plasmodium berghei
Assay: Luciferase/luciferin-expressing antifolate-resistant parasites were used to infect a culture of HepG2 cells that were pre-incubated with compounds. Infected hepatocytes emit light due to the luciferase reaction. Assay results are presented as the percent inhibition of light emission compared to control. […]
Format: functional
Details: sporozoite; for IC90: read-out: LUCIFERASE INFECTION ASSAY - IC90

| SMILES | IC90 | also measured |
| --- | --- | --- |
| O=C(Nc1ccc(N2CCN(c3ccc(C(F)(F)F)cn3)CC2)nc1)c1cccs1 | > 7.61 µM | IC50 (PBLUC_HILL_SLOPE 0.747, PBLUC_R_SQUARED 0.763, read-out: LUCIFERASE INFECTION ASSAY - IC50): 0.638 µM |
| Cc1ccc(OCC(=O)N(Cc2ccccc2)c2c(N)n(Cc3ccccc3)c(=O)[nH]c2=O)c(C)c1 | > 10 µM | IC50 (PBLUC_HILL_SLOPE 0.649, PBLUC_R_SQUARED 0.141, read-out: LUCIFERASE INFECTION ASSAY - IC50): > 10 µM |
| Cc1ncc(CC(=O)n2cc(C(=O)c3cc(F)ccc3O)cn2)s1 | > 10 µM | IC50 (PBLUC_HILL_SLOPE 0.716, PBLUC_R_SQUARED 0.277, read-out: LUCIFERASE INFECTION ASSAY - IC50): > 10 µM |
| COCC(C)n1c(C)cc(C(=O)CSc2ccc(NC(C)=O)cc2)c1C (configuration not stated) | > 10 µM | IC50 (PBLUC_HILL_SLOPE 0.698, PBLUC_R_SQUARED 0.74, read-out: LUCIFERASE INFECTION ASSAY - IC50): 0.948 µM |
| CCOC(=O)c1ccccc1NC(=O)C1CCN(c2ncnc3sc(C)c(C)c23)CC1 | > 10 µM | IC50 (PBLUC_HILL_SLOPE 0.744, PBLUC_R_SQUARED 0.552, read-out: LUCIFERASE INFECTION ASSAY - IC50): 5.7 µM |
| COc1ccccc1CNc1nc(NCc2cccc(OC)c2OC)c2sccc2n1 | > 7.56 µM | IC50 (PBLUC_HILL_SLOPE 0.707, PBLUC_R_SQUARED 0.411, read-out: LUCIFERASE INFECTION ASSAY - IC50): 2.69 µM |
| COc1cc(NC(=S)Nc2cccc(OC(F)(F)F)c2)cc(C(F)(F)F)c1 | > 8.04 µM | IC50 (PBLUC_HILL_SLOPE 0.721, PBLUC_R_SQUARED 0.563, read-out: LUCIFERASE INFECTION ASSAY - IC50): 2.34 µM |
| C=CCn1c(C)cc(C(=O)Cn2nnc(-c3ccccc3C)n2)c1C | > 10 µM | IC50 (PBLUC_HILL_SLOPE 0.683, PBLUC_R_SQUARED 0.219, read-out: LUCIFERASE INFECTION ASSAY - IC50): > 10 µM |
| O=C(Nc1ccncc1)c1cc(Br)c(Br)s1 | > 10 µM | IC50 (PBLUC_HILL_SLOPE 0.742, PBLUC_R_SQUARED 0.564, read-out: LUCIFERASE INFECTION ASSAY - IC50): 4.29 µM |
| CC1CC(NC(=S)NCc2csc3ccccc23)CC(C)(C)C1 (configuration not stated) | > 9.52 µM | IC50 (PBLUC_HILL_SLOPE 0.667, PBLUC_R_SQUARED 0.384, read-out: LUCIFERASE INFECTION ASSAY - IC50): > 9.52 µM |
| C=CCN(C(=O)c1[nH]c(C)c(C(C)=O)c1C)c1nc2c(s1)CCCC2 | 6.45 µM | IC50 (PBLUC_HILL_SLOPE 0.713, PBLUC_R_SQUARED 0.94, read-out: LUCIFERASE INFECTION ASSAY - IC50): 0.296 µM |
| Cc1cccc(OCC(=O)Nc2nc(C)c(Cc3ccc4c(c3)OCO4)s2)c1 | > 10 µM | IC50 (PBLUC_HILL_SLOPE 0.768, PBLUC_R_SQUARED 0.0907, read-out: LUCIFERASE INFECTION ASSAY - IC50): > 10 µM |
| CCCCn1c(N)c(-c2nc(CC(C)(C)C)c(C(=O)c3ccc(Br)s3)s2)c(=O)n(C)c1=O | > 10 µM | IC50 (PBLUC_HILL_SLOPE 0.7, PBLUC_R_SQUARED 0.683, read-out: LUCIFERASE INFECTION ASSAY - IC50): 2.73 µM |
| CCc1ccc(S(=O)(=O)Nc2cc(Cl)c(O)c3ccccc23)cc1 | > 10 µM | IC50 (PBLUC_HILL_SLOPE 0.706, PBLUC_R_SQUARED 0.416, read-out: LUCIFERASE INFECTION ASSAY - IC50): 1.42 µM |
| CN(C)c1ccc(Nc2nc(=O)cn[nH]2)cc1 | > 14.3 µM | IC50 (PBLUC_HILL_SLOPE 0.727, PBLUC_R_SQUARED 0.391, read-out: LUCIFERASE INFECTION ASSAY - IC50): > 14.3 µM |
| Cc1c2cnn(C)c(=O)c2c(C)n1Cc1cccs1 | > 12.1 µM | IC50 (PBLUC_HILL_SLOPE 0.733, PBLUC_R_SQUARED 0.45, read-out: LUCIFERASE INFECTION ASSAY - IC50): 4.19 µM |
| O=C(Nc1ccc2c(c1)OC1(CCCCC1)O2)c1ccc[nH]c1=S | 4.02 µM | IC50 (PBLUC_HILL_SLOPE 0.703, PBLUC_R_SQUARED 0.661, read-out: LUCIFERASE INFECTION ASSAY - IC50): 0.176 µM |
| Cc1ccc(-c2cnc3c(Nc4ccc(NS(=O)(=O)c5ccc(C)cc5)cc4)nccn23)cc1 | > 7.03 µM | IC50 (PBLUC_HILL_SLOPE 0.774, PBLUC_R_SQUARED 0.875, read-out: LUCIFERASE INFECTION ASSAY - IC50): 1.09 µM |
| CCOc1ccc2c(c1)C(=O)C(=O)N2Cc1ccc(OC)cc1 | > 10.6 µM | IC50 (PBLUC_HILL_SLOPE 0.721, PBLUC_R_SQUARED 0.0969, read-out: LUCIFERASE INFECTION ASSAY - IC50): > 10.6 µM |
| Cc1cc(N2CCN(C)CC2)n2ncc(-c3ccc(F)cc3)c2n1 | > 10.1 µM | IC50 (PBLUC_HILL_SLOPE 0.664, PBLUC_R_SQUARED 0.928, read-out: LUCIFERASE INFECTION ASSAY - IC50): 0.571 µM |
| c1ccc(OCc2nc3ccccc3n2-c2cc(-c3ccccc3)n[nH]2)cc1 | > 10 µM | IC50 (PBLUC_HILL_SLOPE 0.678, 16.2, PBLUC_R_SQUARED 0.350, 0.0461, read-out: LUCIFERASE INFECTION ASSAY - IC50): 9.43 µM |

| SMILES | IC90 | also measured |
| --- | --- | --- |
| Cc1ccc(S(=O)(=O)NNC(=O)COc2ccc(SC(F)(F)F)cc2)cc1 | > 7.85 µM | IC50 (PBLUC_HILL_SLOPE 0.658, PBLUC_R_SQUARED 0.0672, read-out: LUCIFERASE INFECTION ASSAY - IC50): > 7.85 µM |
| O=C(O)c1c2c(nc3ccccc13)/C(=C/c1ccc(OC(F)F)cc1)CC2 | > 10 µM | IC50 (PBLUC_HILL_SLOPE 0.722, PBLUC_R_SQUARED 0.387, read-out: LUCIFERASE INFECTION ASSAY - IC50): 5.43 µM |
| Cc1cc(C(=O)CSC2=NCCS2)c(C)n1-c1ccc(F)cc1 | > 10 µM | IC50 (PBLUC_HILL_SLOPE 0.709, PBLUC_R_SQUARED 0.459, read-out: LUCIFERASE INFECTION ASSAY - IC50): 2.87 µM |
| Cc1cc(C)c(C#N)c(SCC(=O)N(C)Cc2cnn(-c3ccccc3)c2)n1 | > 10 µM | IC50 (PBLUC_HILL_SLOPE 0.688, PBLUC_R_SQUARED 0.271, read-out: LUCIFERASE INFECTION ASSAY - IC50): 4.09 µM |
| CC12CCC(CC1=NNc1nc3ccccc3o1)C2(C)C (configuration not stated) | > 10 µM | IC50 (PBLUC_HILL_SLOPE 0.724, PBLUC_R_SQUARED 0.679, read-out: LUCIFERASE INFECTION ASSAY - IC50): 4.33 µM |
| Cc1c(C)n(CCCO)c2ncn3nc(-c4ccccc4)nc3c12 | > 10.3 µM | IC50 (PBLUC_HILL_SLOPE 0.753, PBLUC_R_SQUARED 0.737, read-out: LUCIFERASE INFECTION ASSAY - IC50): 1.26 µM |
| Cn1c(C=C2NC(c3cnccn3)=NO2)n[nH]c1=S | > 12 µM | IC50 (PBLUC_HILL_SLOPE 0.666, PBLUC_R_SQUARED 0.147, read-out: LUCIFERASE INFECTION ASSAY - IC50): > 12 µM |
| COc1ccc(NC(=O)c2ccc(CN(C)C3CCCCCC3)cc2)cc1 | > 2 µM | IC50 (PBLUC_HILL_SLOPE 0.775, PBLUC_R_SQUARED 0.25, read-out: LUCIFERASE INFECTION ASSAY - IC50): 1.73 µM |
| CC(C)(C)n1ncc(C(=O)NCCOc2ccccc2)c1C(F)(F)F | > 10 µM | IC50 (PBLUC_HILL_SLOPE 0.7, PBLUC_R_SQUARED 0.775, read-out: LUCIFERASE INFECTION ASSAY - IC50): 0.591 µM |
| O=C(Nc1ccncc1)c1cc([N+](=O)[O-])ccc1Sc1ccccc1 | > 9.39 µM | IC50 (PBLUC_HILL_SLOPE 0.732, PBLUC_R_SQUARED 0.239, read-out: LUCIFERASE INFECTION ASSAY - IC50): 3.82 µM |
| Fc1ccc(-c2cnn3c(NCc4cccs4)ccnc23)cc1Cl | 7.94 µM | IC50 (PBLUC_HILL_SLOPE 0.723, PBLUC_R_SQUARED 0.681, read-out: LUCIFERASE INFECTION ASSAY - IC50): 0.38 µM |
| Clc1cccc(Nc2ncc(-c3ccc4c(c3)OCCCO4)s2)c1 | 3.49 µM | IC50 (PBLUC_HILL_SLOPE 0.775, PBLUC_R_SQUARED 0.83, read-out: LUCIFERASE INFECTION ASSAY - IC50): 0.205 µM |
| O=C1OCCC1Sc1nc(-c2ccccc2)c(-c2ccccc2)o1 (configuration not stated) | > 9.78 µM | IC50 (PBLUC_HILL_SLOPE 0.774, PBLUC_R_SQUARED 0.522, read-out: LUCIFERASE INFECTION ASSAY - IC50): 4.13 µM |
| CSc1nccc(-c2ccc3c(c2)CCC(C)(C)O3)n1 | 11 µM | IC50 (PBLUC_HILL_SLOPE 0.747, PBLUC_R_SQUARED 0.886, read-out: LUCIFERASE INFECTION ASSAY - IC50): 0.583 µM |
| CC(C)(C)c1ccc(C(=O)Nc2cc(Cl)ccc2OC(=O)c2ccc(C(C)(C)C)cc2)cc1 | > 7.11 µM | IC50 (PBLUC_HILL_SLOPE 0.69, PBLUC_R_SQUARED 0.715, read-out: LUCIFERASE INFECTION ASSAY - IC50): 0.555 µM |
| COc1ccc(CNCc2ccc(N3CCCCCC3)cc2)cc1 | > 10 µM | IC50 (PBLUC_HILL_SLOPE 0.677, PBLUC_R_SQUARED 0.204, read-out: LUCIFERASE INFECTION ASSAY - IC50): > 10 µM |
| Cc1c(C)n(CCCO)c2ncn3nc(-c4cccs4)nc3c12 | > 10.1 µM | IC50 (PBLUC_HILL_SLOPE 0.662, PBLUC_R_SQUARED 0.606, read-out: LUCIFERASE INFECTION ASSAY - IC50): 4.42 µM |
| CCN(CC)CCNC(=O)c1ccc(-c2ccccc2)cc1 | > 11.1 µM | IC50 (PBLUC_HILL_SLOPE 0.701, PBLUC_R_SQUARED 0.65, read-out: LUCIFERASE INFECTION ASSAY - IC50): 5.34 µM |
| CC(C)(C)c1ccc(C(=O)Nc2nnc(Sc3ccc([N+](=O)[O-])cc3C#N)s2)cc1 | 4.98 µM | IC50 (PBLUC_HILL_SLOPE 0.682, PBLUC_R_SQUARED 0.567, read-out: LUCIFERASE INFECTION ASSAY - IC50): 0.198 µM |
| O=C(Cn1nnc2ccccc2c1=O)c1ccc(C2CCCCC2)cc1 | > 10 µM | IC50 (PBLUC_HILL_SLOPE 0.775, PBLUC_R_SQUARED 0.761, read-out: LUCIFERASE INFECTION ASSAY - IC50): 1.11 µM |
